Results on two compounds are retold here after patent publication US20050239656A1, “Pyridine compounds or salts thereof and herbicides containing the same” (priority 2002, published 2005).

The test system of test [1] is soybean. The test can be described thus: Test Example 1: foliage treatment, upland pot test. In kind it is in vivo, Glycine max Merr. As to conditions: crop, active ingredient 500 g/ha, observed 18th to 23rd day, 0 = non-treated, 100 = complete kill. Summed up:
(§1)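 Applied as a post-emergence foliar spray: formulated compound diluted to 500 L/ha with spreader at 0.1% (v/v). Treatment timing—rice at 1.2–2.6, wheat at 1.3–2.4, barnyardgrass at 1.3–2.8, soybean at 0.1–0.4 leaf stage. Scored visually on a 0–100% control scale after 18–23 days.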

The test system of test [2] is corn. Put plainly: Test Example 2: soil surface treatment, upland pot test. In kind it is in vivo, Zea mays L. Particulars: observed 20th to 28th day. Summed up:
(§2)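 Visual growth-control ratings, from 0 (like the non-treated plot) to 100 (total kill), were made between days 20 and 28 after a soil-surface spray. The compound, formulated as wettable powder or emulsifiable concentrate and diluted at 1,500 L/ha, went on one day post-sowing in upland-soil pots of 1/170,000 ha.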

Test [3] concerns corn. Put plainly: Test Example 1: foliage treatment, upland pot test. In kind it is in vivo, Zea mays L. Particulars: crop, active ingredient 500 g/ha, observed 18th to 23rd day, 0 = non-treated, 100 = complete kill. In a few lines:
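In this upland pot foliage test, corn plants at 2.1 to 3.2 leaf stages were sprayed by a small size sprayer. The spray was a conventionally formulated wettable powder or emulsifiable concentrate weighed to a set active ingredient amount, diluted in water at 500 L/ha, plus 0.1% (v/v) agricultural spreader. Visual assessment on days 18 to 23 gave growth controlling degree (%), where 0 equals untreated and 100 means complete kill.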

Test [4] has as its system velvetleaf. Put plainly: Test Example 1: foliage treatment, upland pot test. In kind it is in vivo, Abutilon theophrasti MEDIC. Particulars: active ingredient 500 g/ha, observed 18th to 23rd day, 0 = non-treated, 100 = complete kill.
In test [5] the test system is rice. The test can be described thus: Test Example 2: soil surface treatment, upland pot test. As to conditions: observed 20th to 28th day. In kind it is in vivo, Oryza sativa L. In a few lines:
as §2

The test system of test [6] is crabgrass. The description is as above. In kind it is in vivo, Digitaria sanguinalis L. As to conditions: observed 20th to 28th day. Summed up: as §2
Another test has as its system rice (var. Nihonbare). The test can be described thus: Test Example 3: paddy pot test, transplanted rice. In kind it is in vivo, Oryza sativa L. Particulars: applied 4th day after transplantation, visually observed 21st day after application, 0 = non-treated, 100 = complete kill. In a few lines: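 Rice (2-leaf stage) was transplanted 3 cm deep into puddled, leveled paddy soil under 3–4 cm flooding. On day 4 after transplanting, diluted wettable powder or emulsifiable concentrate was pipetted onto the water at a predetermined active-ingredient dose. Growth control (0 = untreated, 100 = complete kill) was scored visually 21 days later.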

For test [7], the system named is rice. Put plainly: Test Example 1: foliage treatment, upland pot test. It is filed as in vivo, Oryza sativa L. As to conditions: crop, active ingredient 500 g/ha, observed 18th to 23rd day, 0 = non-treated, 100 = complete kill. In a few lines: as §1
Test [8] concerns barnyardgrass. The test can be described thus: Test Example 1: foliage treatment, upland pot test. In kind it is in vivo, Echinochloa crus-galli L. Particulars: active ingredient 500 g/ha, observed 18th to 23rd day, 0 = non-treated, 100 = complete kill. In a few lines:
as §1

The subject of test [9] is prickly sida. Put plainly: Test Example 1: foliage treatment, upland pot test. It is filed as in vivo, Sida spinosa L. As to conditions: active ingredient 500 g/ha, observed 18th to 23rd day, 0 = non-treated, 100 = complete kill.
The test system of test [10] is soybean. Put plainly: Test Example 2: soil surface treatment, upland pot test. As to conditions: observed 20th to 28th day. In kind it is in vivo, Glycine max Merr. Summed up:
as §2

Test [11] deals with prickly sida. The test is described as above. Particulars: observed 20th to 28th day. It is filed as in vivo, Sida spinosa L. In a few lines:
as §2

Test [12] concerns green foxtail. The description is as above. In kind it is in vivo, Setaria viridis L. Particulars: observed 20th to 28th day. In a few lines: as §2
Test [13] has as its system redroot pigweed. The description is as above. In kind it is in vivo, Amaranthus retroflexus L. Particulars: observed 20th to 28th day. In a few lines: as §2
In test [14] the test system is velvetleaf. The description is as above. Particulars: observed 20th to 28th day. In kind it is in vivo, Abutilon theophrasti MEDIC. In a few lines: as §2
Test [15] deals with crabgrass. Put plainly: Test Example 1: foliage treatment, upland pot test. It is filed as in vivo, Digitaria sanguinalis L. As to conditions: active ingredient 500 g/ha, observed 18th to 23rd day, 0 = non-treated, 100 = complete kill. The source says:
Upland field soil was put into a 1/170,000 ha pot, and seed of various plants were sown. Then, when the plants reached predetermined leaf stages ((1) barnyardgrass: 1.3 to 2.8 leaf stages, (2) crabgrass: 1.0 to 2.8 leaf stages, (3) green foxtail: 1.3 to 2.6 leaf stages, (4) redroot pigweed: 0.1 to 1.2 leaf stages, (5) prickly sida: 0.1 to 1.2 leaf stages, (6) velvetleaf: 0.1 to 1.2 leaf stages, (7) tall morningglory: 0.1 to 1.5 leaf stages, (8) rice: 1.2 to 2.6 leaf stages, (9) wheat: 1.3 to 2.4 leaf stages, (10) corn, 2.1 to 3.2 leaf stages, (11) soybean: 0.1 to 0.4 leaf stage), a wettable powder or emulsifiable concentrate having the compound of the present invention formulated in accordance with a usual formulation method, was weighed so that the active ingredient would be a predetermined amount, and diluted with water in an amount of 500 L/ha. To the diluted solution, 0.1% (v/v) of agricultural spreader was added. The herbicide thus adjusted was applied by a small size sprayer for foliage treatment. On the 18th to 23rd days after the application of the herbicide, the growth of the respective plants was visually observed, and the herbicidal effects were evaluated by the growth controlling degrees (%) ranging from 0 (equivalent to the non-treated plot) to 100 (complete kill), whereby the results shown in Table 3, were obtained.

For test [16], the system named is barnyardgrass. Put plainly: Test Example 2: soil surface treatment, upland pot test. It is filed as in vivo, Echinochloa crus-galli L. As to conditions: observed 20th to 28th day. Summed up:
as §2

The test system of a further test is japanese bulrush. Put plainly: Test Example 3: paddy pot test, application under submerged conditions. It is filed as in vivo, Scirpus juncoides. As to conditions: submerged application at 0.5 leaf stage, visually observed 14 days after application, 0 = non-treated, 100 = complete kill. Summed up: (§3)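 After sowing seeds and planting wapato tubers in flooded paddy soil, an aqueous dilution of the formulated compound was added to the 3–4 cm flood water at early leaf stage. Percent growth control relative to the untreated plot was assessed visually on day 14.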

Test [17] concerns green foxtail. The test can be described thus: Test Example 1: foliage treatment, upland pot test. It is filed as in vivo, Setaria viridis L. Particulars: active ingredient 500 g/ha, observed 18th to 23rd day, 0 = non-treated, 100 = complete kill.
Another test concerns japanese ribbon wapato. Put plainly: Test Example 3: paddy pot test, application under submerged conditions. In kind it is in vivo, Sagittaria pygniaea. Particulars: submerged application at primary leaf stage, visually observed 14 days after application, 0 = non-treated, 100 = complete kill. Summed up:
as §3

Test [18] relates to redroot pigweed. Put plainly: Test Example 1: foliage treatment, upland pot test. It is filed as in vivo, Amaranthus retroflexus L. Particulars: active ingredient 500 g/ha, observed 18th to 23rd day, 0 = non-treated, 100 = complete kill.
For test [19], the system named is barnyardgrass. Put plainly: Test Example 3: paddy pot test, application under submerged conditions. It is filed as in vivo, Echinochloa crus-galli L. Particulars: active ingredient 250 g/ha; submerged application at 0.5 leaf stage; visually observed 14 days after application; 0 = non-treated, 100 = complete kill. In a few lines: as §3

As for `CC(C)C(c1cnccc1C(F)(F)F)N(C)C(=O)Cc1ccc(F)cc1` (stereo not shown) [I-21], the “Growth controlling degree (%) Soybean” value in the test on soybean [1] stood at 70%. Moreover, the “Growth controlling degree (%) Corn” value with corn [2] (active ingredient 250 g/ha) came to 50%; in the test with corn [3], 30%. Besides, the “Growth controlling degree (%) Velvetleaf” value is 95% in the test with velvetleaf [4] and 70% in the test on velvetleaf [14] (active ingredient 250 g/ha). Further, the “Growth controlling degree (%) Rice” value in the test on rice [5] (active ingredient 250 g/ha) is 40%; in the test with rice (var. Nihonbare) (active ingredient 500 g/ha) it was 40%; in the test with rice [7], 20%. For the same compound, the “Growth controlling degree (%) Crabgrass” value in the test with crabgrass [6] (active ingredient 250 g/ha) is on record as 98%; with crabgrass [15], 95%. Moreover, the figures for the “Growth controlling degree (%) Barnyardgrass” value in the test on barnyardgrass [8] and in the test with barnyardgrass [16] (active ingredient 250 g/ha) were 80% and 60%, respectively. Moreover, the “Growth controlling degree (%) Prickly sida” value with prickly sida [9] came out at 90%; with prickly sida [11] (active ingredient 250 g/ha) it was 80%. Moreover, in the test with soybean [10] (active ingredient 250 g/ha), the “Growth controlling degree (%) Soyabean” value is listed as 20%. The entries for the “Growth controlling degree (%) Green foxtail” value in the test with green foxtail [12] (active ingredient 250 g/ha) and in the test on green foxtail [17] were 90% and 70%, respectively. Also, the “Growth controlling degree (%) Redroot pigweed” value in the test with redroot pigweed [13] (active ingredient 250 g/ha) and in the test on redroot pigweed [18] was 90% each time. The “Growth controlling degree (%) Japanese bulrush” value in the test on japanese bulrush (active ingredient 500 g/ha) amounted to 98%. Also, the “Growth controlling degree (%) Japanese ribbon wapato” value in the test on japanese ribbon wapato (active ingredient 500 g/ha) is given as 100%.
With `CC(C)C(c1cnccc1C(F)(F)F)N(C)C(=O)Cc1cccc(C(F)(F)F)c1F` (stereo not shown) [I-29], the “Growth controlling degree (%) Soybean” value in the test with soybean [1] is given as 50%. Also, the figures for the “Growth controlling degree (%) Corn” value with corn [2] (active ingredient 500 g/ha) and in the test on corn [3] were 20% and 10%, respectively. Also, the figures for the “Growth controlling degree (%) Velvetleaf” value in the test on velvetleaf [4] and with velvetleaf [14] (active ingredient 500 g/ha) were 80% and 70%, respectively. The “Growth controlling degree (%) Rice” value in the test with rice [5] (active ingredient 500 g/ha) turned out to be 30%; in the test with rice (var. Nihonbare) (active ingredient 250 g/ha), 10%; in the test on rice [7], 10%. Besides, the “Growth controlling degree (%) Crabgrass” value in the test with crabgrass [6] (active ingredient 500 g/ha) is 99%; with crabgrass [15], 90%. For the same compound, the “Growth controlling degree (%) Barnyardgrass” value in the test with barnyardgrass [19] worked out at 100%; in the test with barnyardgrass [8], 60%; in the test with barnyardgrass [16] (active ingredient 500 g/ha) it was 100%. Also, the results for the “Growth controlling degree (%) Prickly sida” value with prickly sida [9] and in the test with prickly sida [11] (active ingredient 500 g/ha) were 80% and 98%, respectively. Moreover, the “Growth controlling degree (%) Soyabean” value in the test on soybean [10] (active ingredient 500 g/ha) is on record as 10%. In addition, the figures for the “Growth controlling degree (%) Green foxtail” value in the test with green foxtail [12] (active ingredient 500 g/ha) and in the test with green foxtail [17] were 100% and 60%, respectively. In addition, the results for the “Growth controlling degree (%) Redroot pigweed” value in the test on redroot pigweed [13] (active ingredient 500 g/ha) and in the test on redroot pigweed [18] were 70% and 80%, respectively. In addition, in the test with japanese bulrush (active ingredient 250 g/ha), the “Growth controlling degree (%) Japanese bulrush” value is given as 70%. Besides, the “Growth controlling degree (%) Japanese ribbon wapato” value with japanese ribbon wapato (active ingredient 250 g/ha) is given as 10%.
